Experimental data reported in US10806739B2, “Use of n-desmethylclobazam in the treatment of chronic pain disorders and related methods” (LES HOPITAUX UNIV[…] GENEVE, priority 2015, dated 2020).

Columns and labels:
[1] = test system: healthy volunteers; settings: standard therapeutic doses; cited from earlier work
[2] = after a single oral dose of 20 or 30 mg of CBZ; cited from earlier work
[3] = test system: T1, α1β2γ2, α2β3γ2, α3β3γ2 and α5β2γ2 GABAARs; experiment: Whole-cell patch-clamp, results stated across several recombinant GABAAR subtypes; assay type: cell-based, rat; settings: α1-, α2- and α5-GABAARs together; GABA at EC10
T1 construct: rows headed: Potentiation of the other three α1-, α2-, and α5-GABAARs subtypes; other: α1-, α2- and α5-GABAARs together; GABA at EC1; fused on or other part: eGFP co-expressed from an IRES on the γ2 plasmid (not fused)
Excerpt: (§1) To ensure expression of the γ2 subunit (required for modulation of GABAAR currents by BDZs) in all recorded cells, cells were transfected with a plasmid expressing the γ2 subunit plus eGFP from an IRES (internal ribosome entry site) and only eGFP-positive cells were selected for recordings. The transfection mixture contained (in μg): […], 3 γ2/eGFP (used as a marker of successful transfection). Whole-cell patch-clamp recordings were made 18-36 hrs after transfection at room temperature (20-24° C.) and at a holding membrane potential of −60 mV. Recording electrodes were filled with solution containing (in mM): 120 CsCl, 10 EGTA (aminopolycarboxylic acid), 10 HEPES (4-(2-hydroxyethyl)-1-piperazineethanesulfonic acid, pH 7.40), 4 MgCl2, 0.5 GTP (guanosine-5′-triphosphate) and 2 ATP (adenosine triphosphate). The external solution contained (in mM): 150 NaCl, 10 KCl, 2.0 CaCl2, 1.0 MgCl2, 10 HEPES (pH 7.40), and 10 glucose. GABA was applied to the recorded cell using a manually controlled pulse (6-10 s) of a low sub-saturating GABA concentration (EC10). […] EC50 values and Hill coefficients (nH) were obtained from fits of normalized concentration-response curves to the equation: IGABA=Imax[GABA]nH/([GABA]nH+[EC50]nH). Imax was determined as the average maximal current elicited by saturating concentration of GABA (30 μM−3 mM, depending on the subunit composition).

[4] = test system: T2, α1β2γ2, α2β3γ2, α3β3γ2 and α5β2γ2 GABAARs; experiment: as above; assay type: cell-based, rat; settings: up to 3 μM for DZP, up to 20 μM for CBZ and NDMC
T2 construct: EC50 of potentiation of GABAAR currents; other: range over all four receptor subtypes; GABA at EC10; fused on or other part: eGFP co-expressed from an IRES on the γ2 plasmid (not fused)
Excerpt: as §1

[5] = test system: α1β2γ2, α2β3γ2, α3β3γ2 and α5β2γ2 GABAARs; experiment: as above; assay type: cell-based, rat; settings: for Preference α2- versus α1GABAARs at low concentrations: low concentrations (<EC50); for Efficacy of potentiation of α2- versus α1GABAARs at saturating concentrations: saturating concentrations: 1 μM DZP, 20 μM CBZ, 20 μM NDMC; for Relative potentiation of subtypes at sub-saturating concentrations: sub-saturating concentrations (<EC50)
Excerpt: as §1

[6] = target: T3, α3β3γ2 GABAAR (Rattus norvegicus, UniProt P18508+P20236); experiment: Whole-cell patch-clamp, potentiation of GABA-evoked currents in transfected HEK293 cells; assay type: cell-based; settings: α3GABAARs; GABA at EC10
T3 construct: expressed in transfected cells; host or cells: HEK293 cells (ATCC)
Excerpt: as §1

[7] = test system: α2 versus α1 receptor complexes; settings: cited from earlier work
[8] = test system: α1GABAAR-mediated sedation; experiment: Dose dependence of sedation in triple (H→R) point-mutated mice; settings: all GABAARs except α1 BDZ-insensitive
Experimental: Mice (C57BL/6J or 129X1/SvJ) were tested during the light phase of the day-night cycle. […] Motor activity expressed as the total number of photocell interruptions was recorded for 6 h.

[9] = test system: α2GABAAR-mediated antihyperalgesia; settings: GABAAR α1 (H→R) point-mutated mice
Experimental: To avoid confounding effects of anxiolysis in sedation experiments, and of sedation on antihyperalgesia experiments triple point-mutated mice were used. Sedation was assessed in triple (H→R) point-mutated mice, in which all GABAARs except α1 had been rendered BDZ-insensitive. Conversely, antihyperalgesia was studied in GABAAR α1 (H→R) point-mutated mice to rule out confounding sedation.

[10] = target: α2GABAAR (Mus musculus, UniProt P22723+P26048); settings: full agonist; cited from earlier work
[11] = test system: mice, motor activity; experiment: Motor activity (photocell interruptions); assay type: in vivo
[12] = test system: CCI mice, paw withdrawal latency; experiment: Heat hyperalgesia (Plantar Test) in chronic constriction injury (CCI) neuropathic pain model; assay type: in vivo
Experimental: (§2) Experiments were performed in wild-type mice (genetic background C57BL/6J or 129X1/SvJ), and in homozygous triple and quadruple (H→R) GABAAR point-mutated mice of the 129X1/SvJ background (Ralvenius et al., 2015, supra). Quadruple point-mutated mice were generated by cross breeding of single point-mutated mice (Crestani et al., 2002, PNAS, 99(13): 8980-8985; Low et al., 2000, Science 290(5489): 131-134; Rudolph et al., 1999, Nature, 401(6755): 796-800). Quadruple point mutated mice carry the H→R mutation in the α1, α2, α3, and α5 subunits that is in all α subunits that can form a high affinity BDZ binding site.
(§3) A chronic constriction injury (CCI) model was used. Unilateral constriction injury of the left sciatic nerve just proximal to the trifurcation was performed. Anesthesia was induced and maintained by 2% isoflurane, combined with oxygen (30%). The sciatic nerve was exposed at the mid-thigh level proximal to the sciatic trifurcation by blunt dissection through the biceps femoris muscle. […] Heat hyperalgesia and mechanical sensitization were assessed 7 days after surgery.
Paw withdrawal latencies upon exposure to a defined radiant heat stimulus were measured using a commercially available apparatus (Plantar Test, Ugo Basile, Comerio, Italy). […]

[13] = target: T4, α1β2γ2 GABAAR (Rattus norvegicus, UniProt P18508+P62813); experiment: Whole-cell patch-clamp, potentiation of GABA-evoked currents in transfected HEK293 cells; assay type: cell-based; settings: α1GABAARs; GABA at EC10
T4 construct: expressed in transfected cells; host or cells: HEK293 cells (ATCC)
Excerpt: as §1

[14] = target: T5, α2β3γ2 GABAAR (Rattus norvegicus, UniProt P18508+P23576); experiment: as above; assay type: cell-based
T5 construct: expressed in transfected cells; host or cells: HEK293 cells (ATCC)
Excerpt: as §1

[15] = target: T6, α5β2γ2 GABAAR (Rattus norvegicus, UniProt P18508+P19969); experiment: as above; assay type: cell-based; settings: α5GABAARs; GABA at EC10
T6 construct: expressed in transfected cells; host or cells: HEK293 cells (ATCC)
Excerpt: as §1

[16] = test system: CCI mice, paw withdrawal threshold; experiment: Mechanical hyperalgesia (dynamic von Frey filaments) in CCI neuropathic pain model; assay type: in vivo
Experimental: as §2
as §3, with “muscle. […] of nerve were freed of adhering tissue and three chromic gut ligatures (4/0) (Ethicon) were loosely put around the nerve with about 1 mm spacing.” for “muscle.”
Mechanical sensitivity was assessed with dynamic von Frey filaments (IITC, Woodland Hills, Calif.). […]

[17] = NDMC pharmacokinetics after oral administration, dried blood spot sampling, LCMS-MS; assay type: in vivo, C57BL/6 mice
Experimental: Pharmacokinetic parameters of NDMC following oral administration in C57BL/6 mice were determined and allowed to test whether antihyperalgesia after NDMC administration was mediated by NDMC itself and not by a down-stream metabolite.
Pharmacokinetic properties of NDMC were evaluated using the dried blood spot sampling method. This technique allows collecting multiple bleeds from the same animal over a large time window (Deglon et al., 2011, Pharm. Biomed. Analysis, 54(2): 359-367). Four μl of whole blood were collected and spotted onto a filter paper card from Whatman (Dassel, Germany) at different time points between 0 and 48 h after NDMC administration. NDMC concentration measurements were performed using a fully validated LCMS-MS (liquid chromatography—mass spectrometry or HPLC) method. Pharmacokinetic parameters were estimated by a noncompartmental method using WinNonlin® version 5.2 (Pharsight, Mountainview, Calif., USA).
Blood NDMC concentrations were measured with HPLC following single oral doses of 3, 10 and 30 mg kg^−1 in three mice per group (FIG. 5). Maximal blood levels of NDMC were reached within 2-3 hrs.

[18] = quadruple point-mutated mice, 30 mg kg^−1
[19] = single oral doses of 3, 10 and 30 mg kg^−1

T3 sequence (P20236 29-493): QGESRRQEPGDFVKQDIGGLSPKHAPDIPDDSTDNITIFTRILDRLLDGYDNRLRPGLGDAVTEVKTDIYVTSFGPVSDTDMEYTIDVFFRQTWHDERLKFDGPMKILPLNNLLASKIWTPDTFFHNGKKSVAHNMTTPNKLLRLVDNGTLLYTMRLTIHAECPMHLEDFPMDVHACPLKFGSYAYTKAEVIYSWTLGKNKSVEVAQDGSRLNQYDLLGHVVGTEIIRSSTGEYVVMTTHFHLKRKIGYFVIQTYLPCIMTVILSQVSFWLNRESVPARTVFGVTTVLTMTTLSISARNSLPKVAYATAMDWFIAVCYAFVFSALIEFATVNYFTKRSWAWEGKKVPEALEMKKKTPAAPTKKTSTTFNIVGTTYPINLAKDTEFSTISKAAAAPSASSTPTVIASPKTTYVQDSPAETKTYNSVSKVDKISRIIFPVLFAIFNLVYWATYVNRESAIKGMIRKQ
T3 sequence (P63079 26-473 partner): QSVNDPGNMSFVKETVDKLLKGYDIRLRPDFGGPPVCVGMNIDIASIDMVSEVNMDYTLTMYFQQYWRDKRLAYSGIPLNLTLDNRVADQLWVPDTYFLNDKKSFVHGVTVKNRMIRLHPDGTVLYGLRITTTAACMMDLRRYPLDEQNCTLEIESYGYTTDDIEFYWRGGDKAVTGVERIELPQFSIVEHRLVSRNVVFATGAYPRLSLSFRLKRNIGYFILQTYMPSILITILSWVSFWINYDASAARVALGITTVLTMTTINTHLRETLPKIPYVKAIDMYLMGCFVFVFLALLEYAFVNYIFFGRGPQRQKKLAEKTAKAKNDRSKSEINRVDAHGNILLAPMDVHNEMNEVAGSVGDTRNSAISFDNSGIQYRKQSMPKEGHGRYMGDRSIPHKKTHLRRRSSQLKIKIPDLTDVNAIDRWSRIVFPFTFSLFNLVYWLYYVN
T3 sequence (P18508 39-466): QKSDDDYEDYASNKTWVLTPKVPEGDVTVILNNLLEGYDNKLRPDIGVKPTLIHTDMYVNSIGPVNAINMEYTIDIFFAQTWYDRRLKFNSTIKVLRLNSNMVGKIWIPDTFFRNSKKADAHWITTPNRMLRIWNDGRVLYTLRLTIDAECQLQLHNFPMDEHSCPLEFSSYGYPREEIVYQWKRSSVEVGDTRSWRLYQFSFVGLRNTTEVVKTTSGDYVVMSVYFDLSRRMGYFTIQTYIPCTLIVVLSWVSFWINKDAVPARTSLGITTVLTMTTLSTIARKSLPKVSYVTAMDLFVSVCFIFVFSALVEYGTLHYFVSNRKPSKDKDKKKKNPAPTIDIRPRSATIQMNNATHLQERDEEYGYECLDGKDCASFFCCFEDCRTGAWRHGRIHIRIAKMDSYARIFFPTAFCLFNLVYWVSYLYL
T5 sequence (P23576 29-451): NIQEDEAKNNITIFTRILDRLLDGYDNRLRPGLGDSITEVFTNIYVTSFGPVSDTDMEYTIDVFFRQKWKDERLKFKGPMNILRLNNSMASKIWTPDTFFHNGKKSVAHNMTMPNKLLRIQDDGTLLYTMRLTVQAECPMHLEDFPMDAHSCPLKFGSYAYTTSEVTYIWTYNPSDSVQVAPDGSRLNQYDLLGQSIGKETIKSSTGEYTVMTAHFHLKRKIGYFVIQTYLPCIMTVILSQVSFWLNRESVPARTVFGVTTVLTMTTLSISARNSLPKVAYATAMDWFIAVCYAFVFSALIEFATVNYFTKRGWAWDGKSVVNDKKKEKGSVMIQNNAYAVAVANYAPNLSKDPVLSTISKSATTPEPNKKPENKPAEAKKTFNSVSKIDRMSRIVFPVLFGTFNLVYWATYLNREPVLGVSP
T5 sequence (P63079 26-473 partner): as the sequence (P63079 26-473 partner) above
T5 sequence (P18508 39-466): as the sequence (P18508 39-466) above
Chain of α2GABAAR (P26048 29-451): as the sequence (P23576 29-451) above, with S88L, P174A counted along it
Chain of α2GABAAR (P22723 39-474): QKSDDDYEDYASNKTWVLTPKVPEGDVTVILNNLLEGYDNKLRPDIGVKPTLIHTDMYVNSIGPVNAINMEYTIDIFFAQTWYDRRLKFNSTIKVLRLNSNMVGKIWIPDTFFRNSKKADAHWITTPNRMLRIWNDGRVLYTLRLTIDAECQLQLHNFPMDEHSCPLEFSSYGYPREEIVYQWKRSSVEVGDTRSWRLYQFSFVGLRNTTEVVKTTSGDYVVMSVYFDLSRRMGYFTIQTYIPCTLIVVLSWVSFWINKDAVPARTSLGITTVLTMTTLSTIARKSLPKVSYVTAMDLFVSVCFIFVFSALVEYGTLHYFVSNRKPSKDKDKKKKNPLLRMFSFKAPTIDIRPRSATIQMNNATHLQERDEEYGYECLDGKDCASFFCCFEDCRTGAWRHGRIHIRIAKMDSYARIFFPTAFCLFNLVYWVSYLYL
T6 sequence (P19969 32-464 limits assumed): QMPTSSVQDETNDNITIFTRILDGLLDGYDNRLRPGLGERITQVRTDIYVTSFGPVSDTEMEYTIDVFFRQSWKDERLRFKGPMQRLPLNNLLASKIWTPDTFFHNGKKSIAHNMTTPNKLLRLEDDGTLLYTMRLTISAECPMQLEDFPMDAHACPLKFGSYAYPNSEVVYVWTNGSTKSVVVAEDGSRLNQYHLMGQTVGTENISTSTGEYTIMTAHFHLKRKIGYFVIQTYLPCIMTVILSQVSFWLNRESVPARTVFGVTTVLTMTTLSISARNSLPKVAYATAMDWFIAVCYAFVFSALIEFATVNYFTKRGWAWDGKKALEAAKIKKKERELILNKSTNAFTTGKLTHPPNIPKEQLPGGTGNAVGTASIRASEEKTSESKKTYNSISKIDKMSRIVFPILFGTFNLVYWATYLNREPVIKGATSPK
T6 sequence (P63138 25-474 partner limits assumed): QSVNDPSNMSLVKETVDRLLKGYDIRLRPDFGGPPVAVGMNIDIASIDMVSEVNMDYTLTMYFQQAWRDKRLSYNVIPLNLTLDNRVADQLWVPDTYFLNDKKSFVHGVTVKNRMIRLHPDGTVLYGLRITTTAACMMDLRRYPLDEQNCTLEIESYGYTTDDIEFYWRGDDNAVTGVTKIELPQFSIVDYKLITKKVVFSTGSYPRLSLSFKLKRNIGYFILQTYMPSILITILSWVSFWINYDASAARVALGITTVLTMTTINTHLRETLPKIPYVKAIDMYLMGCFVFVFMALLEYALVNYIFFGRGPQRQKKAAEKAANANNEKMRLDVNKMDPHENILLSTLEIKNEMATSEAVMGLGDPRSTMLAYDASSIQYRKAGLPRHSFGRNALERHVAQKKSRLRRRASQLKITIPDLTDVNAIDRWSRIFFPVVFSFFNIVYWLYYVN
T6 sequence (P18508 39-466): as the sequence (P18508 39-466) above
T4 sequence (P62813 28-455): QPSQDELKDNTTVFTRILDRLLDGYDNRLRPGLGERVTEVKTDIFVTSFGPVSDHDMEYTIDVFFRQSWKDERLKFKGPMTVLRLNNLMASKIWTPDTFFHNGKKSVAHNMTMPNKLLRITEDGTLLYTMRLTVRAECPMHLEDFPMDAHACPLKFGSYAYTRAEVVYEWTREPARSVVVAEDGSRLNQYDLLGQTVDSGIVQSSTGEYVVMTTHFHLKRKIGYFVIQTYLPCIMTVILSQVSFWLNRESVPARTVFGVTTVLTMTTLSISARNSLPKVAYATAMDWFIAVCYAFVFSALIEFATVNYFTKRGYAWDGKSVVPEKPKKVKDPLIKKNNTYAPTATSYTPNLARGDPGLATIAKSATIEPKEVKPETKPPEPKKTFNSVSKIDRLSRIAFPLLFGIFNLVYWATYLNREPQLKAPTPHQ
T4 sequence (P63138 25-474 partner limits assumed): as the sequence (P63138 25-474 partner limits assumed) above
T4 sequence (P18508 39-466): as the sequence (P18508 39-466) above

Compound | Analgesic effect [1] | Direct activation of GABAAR currents [4] | Preference α2- versus α1GABAARs at low concentrations [5] | Efficacy of potentiation of α2- versus α1GABAARs at saturating concentrations [5] | Relative potentiation of subtypes at sub-saturating concentrations [5] | Potentiation of currents (% increase upon application) [6] | Binding affinity for α2 versus α1 receptor complexes [7] | ED50 antihyperalgesia [9] [mg/kg] | also measured
CN1C(=O)CC(=O)N(c2ccccc2)c2cc(Cl)ccc21 [CBZ, clobazam] | weak analgesic effects | did not directly activate GABAAR currents | about similar effects on α2- and α1GABAARs | potentiated both GABAAR subtypes with similar efficacy | α1GABAAR mediated currents were potentiated similarly to α2-, α3- and α5-GABAARs mediated currents | about 300% | higher binding affinity for α2 versus α1 receptor complexes | – | Half-life in human [2]: 23 to 24 h; Potentiation of the other three α1-, α2-, and α5-GABAARs subtypes [3]: about 150%
CN1C(=O)CN=C(c2ccccc2)c2cc(Cl)ccc21 [DZP, diazepam] | – | did not directly activate GABAAR currents | favored α1GABAARs | potentiated both GABAAR subtypes with similar efficacy | α1GABAAR mediated currents were potentiated more strongly than α2-, α3- and α5-GABAARs mediated currents | 237% | – | 3.4 ± 1.3 | ED50 sedation [8]: 0.59 ± 0.08 mg/kg; α2GABAAR occupancy at which significant analgesia (>50% maximum possible effect) is achieved [10]: about 70%
O=C1CC(=O)N(c2ccccc2)c2cc(Cl)ccc2N1 [NDMC, 8-Chloro-1-phenyl-1H-1,5-benzodiazepine-2,4(3H,5H)-dione] | – | did not directly activate GABAAR currents | preferred α2GABAARs across the entire concentration range tested | clearly favored α2-over α1GABAARs | highest for α2- followed by α3-, and lowest for α5- and α1-GABAARs mediated currents | 245% | a difference which is shared | 3.1 ± 0.9 | Effect on locomotor activity (sedation) ([11]; 129X1/SvJ mice, all tested doses): did not cause any measurable reduction in locomotor activity; Effect on motor activity (sedation) ([11]; C57BL/6J mice, 3, 10, 30 mg/kg, recorded for 6 h): did not impair motor activity at any dose; α2/α1GABAAR selectivity ratio ([5]; compared among DZP, CBZ and NDMC): most favorable α2/α1GABAAR selectivity ratio; Reversal of thermal hypersensitivity (paw withdrawal latency) ([12]; C57BL/6J mice, injured paw, NDMC 3, 10, 30 mg/kg): dose-dependently reversed this hypersensitivity; Antihyperalgesic effect, heat hyperalgesia [12, 18]: completely lost its antihyperalgesic effects; Potentiation of currents (% increase upon application) [13]: 143%; Efficacy at α2β3γ2GABAARs compared with DZP [14]: even stronger efficacy at α2β3γ2GABAARs than the full agonist DZP; Potentiation of currents (% increase upon application) ([14]; α2GABAARs, GABA at EC10): 253%; Potentiation of currents (% increase upon application) [15]: 148%; Reversal of mechanical hypersensitivity (paw withdrawal threshold) ([16]; C57BL/6J mice, injured paw, NDMC 3, 10, 30 mg/kg, compared to vehicle): dose-dependently reversed this hypersensitivity; Antihyperalgesic effect, mechanical hyperalgesia [16, 18]: completely lost its antihyperalgesic effects; half-life ([17]; C57BL/6, mouse, plasma, range over single oral doses of 3, 10 and 30 mg kg^−1): 276 to 336 min; Average maximum plasma concentration ([17]; single oral dose 3 mg kg^−1): 1.2 µg/mL; Average maximum plasma concentration ([17]; single oral dose 10 mg kg^−1): 1.9 µg/mL; Average maximum plasma concentration ([17]; single oral dose 30 mg kg^−1): 3.3 µg/mL; Time to average maximum plasma concentrations [17, 19]: about 2.5 hrs; Time to maximal blood levels [17, 19]: 2 to 3 h
O=C1CN=C(c2ccccc2Cl)c2cc([N+](=O)[O-])ccc2N1 [clonazepam] | weak analgesic effects | – | – | – | – | – | no distinction of affinity between α2 and α1 receptor complexes | – | –
